The subject of one test is miR-221. Briefly: Quantitative PCR of miR-221 expression in hEPCs. The test is classed as cell-based, human. To be noted: for inhibiting the expression of miR-221: trimethylamine-N-oxide 300 μM, 125 μM DHA (embodiment 3) or EPA (embodiment 6), 24 hours, compared with comparison group 1. The protocol:
To analyze the effects of the omega-3 polyunsaturated fatty in inhibiting the inflammatory responses induced by the activation of the trimethylamine-N-oxide, human endothelial progenitor cells are cultured in the MCDB-131 medium supplemented with the 10% fetal bovine serum and the EGM™-2 growth kit and are administered separately with reagent formulations of the control group 1, the comparison group 1, and the embodiments 1 to 6 shown in Table 1. After the culture time of 24 hours has elapsed, the expressions of cytokines related to the inflammatory responses in the human endothelial progenitor cells are analyzed by enzyme-linked immunosorbent assay (ELISA) and quantitative PCR (qPCR) so as to evaluate the effects of the omega-3 polyunsaturated fatty acids in inhibiting the inflammatory responses mediated by the activation of the trimethylamine-N-oxide. Each experiment is repeated 3 times.
In detail, according to the previous studies, miRNA-221 (“miR-221” hereafter) plays an essential role in the physiological metabolism of the human endothelial progenitor cells. […] Therefore, the present disclosure uses the quantitative PCR and the enzyme-linked immunosorbent assay to analyze the expressions of miR-221 and IL-6 in the human endothelial progenitor cells of the control group 1, the comparison group 1, and the embodiments 1 to 6 after cell culture for 24 hours so as to evaluate the effects of the omega-3 polyunsaturated fatty acids in inhibiting the inflammatory responses induced by the activation of the trimethylamine-N-oxide.
Furthermore, the operation details of the quantitative PCR and the enzyme-linked immunosorbent assay are well-known in the art and can be adjusted according to the experimental requirements, so the detailed steps thereof will not be described herein again.

Test [1] deals with human endothelial progenitor cells. Briefly: GSH/GSSG ratio in hEPCs by liquid chromatography, electrospray ionization, mass spectrometry. Format: cell-based. The following applies: SCF 20 ng/mL, trimethylamine-N-oxide 300 μM (comparison group 3) vs SCF alone (comparison group 2), p<0.05. As for the experimental part: (§1) To analyze the effects of the omega-3 polyunsaturated fatty acids in alleviating the impairment of neovascularization induced by the activation of the trimethylamine-N-oxide, human endothelial progenitor cells are cultured in the MCDB-131 medium containing the EGM™-2 growth kit and the 10% fetal bovine serum in a Matrigel-coated 96-well plate. Then, the human endothelial progenitor cells are administered separately with reagent formulations of the control group 2, the comparison groups 2 to 3, and the embodiments 7 to 9 shown in Table 2, and incubated in an incubator at 37° C. for 8 hours.
(§2) After the culture time of 8 hours has elapsed, the human endothelial progenitor cells are fixed in glutaraldehyde/paraformaldehyde solution and treated with Calcein-AM solution so as to detect the fluorescent signals of different groups. The proteins of the human endothelial progenitor cells are extracted and analyzed by the Western blot analysis to confirm the expressions of factors related to the Akt/eNOS signaling pathway, the MAPK/ERK signaling pathway and the expression of gamma-glutamylcysteine synthetase (“γ-GCS” hereafter), wherein the γ-GCS participates in the synthesis of GSH. The GSH/GSSG ratios in the human endothelial progenitor cells are analyzed by using the liquid chromatography, the electrospray ionization, and the mass spectrometry. Each experiment is repeated 3 times. […]

Test [2] deals with Akt/eNOS signaling pathway and MAPK/ERK signaling pathway. Briefly: Western blot of factors of the Akt/eNOS and MAPK/ERK signaling pathways in SCF-treated hEPCs. Format: cell-based, human. To be noted: SCF 20 ng/mL, trimethylamine-N-oxide 300 μM (comparison group 3) vs SCF alone (comparison group 2), 8 hours. As for the experimental part: as §1, §2
Test [3] concerns human endothelial progenitor cells. In words: Neovasculogenesis index of hEPCs on Matrigel (Calcein-AM). Format: cell-based. The following applies: SCF 20 ng/mL, trimethylamine-N-oxide 300 μM (comparison group 3) vs SCF alone (comparison group 2), p<0.05. The protocol:
as §1
After the culture time of 8 hours has elapsed, the human endothelial progenitor cells are fixed in glutaraldehyde/paraformaldehyde solution and treated with Calcein-AM solution so as to detect the fluorescent signals of different groups. The proteins of the human endothelial progenitor cells are extracted and analyzed by the Western blot analysis to confirm the expressions of factors related to the Akt/eNOS signaling pathway, the MAPK/ERK signaling pathway and the expression of gamma-glutamylcysteine synthetase (“γ-GCS” hereafter), wherein the γ-GCS participates in the synthesis of GSH. The GSH/GSSG ratios in the human endothelial progenitor cells are analyzed by using the liquid chromatography, the electrospray ionization, and the mass spectrometry. Each experiment is repeated 3 times.

Results on three compounds are retold here after patent publication US20240148682A1, “METHOD FOR REGULATING DOWNSTREAM SIGNALING PATHWAY MEDIATED BY ACTIVATION OF TRIMETHYLAMINE-N-OXIDE” (China Medical University, priority 2022, published 2024).

As to `CC/C=C\C/C=C\C/C=C\C/C=C\C/C=C\C/C=C\CCC(=O)O` [DHA, docosahexaenoic acid], the “inhibiting the expression of miR-221” value in the test on miR-221 turned out to be 85%.

Take `CC/C=C\C/C=C\C/C=C\C/C=C\C/C=C\CCCC(=O)O` [EPA, eicosapentaenoic acid]: the “inhibiting the expression of miR-221” value with miR-221 is on record as 75%.

For the compound `C[N+](C)(C)[O-]` [trimethylamine-N-oxide, Trimethylamine-N-oxide], the GSH/GSSG ratio entry in test [1] is given as “significantly lower”. The “expressions of p-Akt, p-eNOS, and p-ERK1/2” value in test [2] is given as “lower”. For the same compound, in the test with miR-221 (trimethylamine-N-oxide 300 μM alone (comparison group 1) vs control group 1, 24 hours), the “expression of miR-221” value is “significantly higher”. Besides, the neovasculogenesis index entry in test [3] is “significantly lower”.
